{
  "source": "patent US12564582B2",
  "about": "(Prilenia Neurotherapeutics Ltd., priority 2016, dated 2026)",
  "key": {"[1]": {"test_system": "patients with Huntington's disease", "procedure": "The study also compared data from all patients to those obtained in HD subpopulations.\nThe primary efficacy variable and endpoint for this study was change from baseline in the UHDRS TMS (defined as the sum of all UHDRS motor domains ratings) at Week 26 or Week 52. The primary measure of motor impairment is the UHDRS motor assessment section, which was administered by a trained examiner. The first part of the motor assessment consisted of five TMS subscores, provided below. The sum total of all the 31 items is referred to as the Total Motor Score (TMS). The secondary efficacy variable and endpoint was change from baseline in the mPPT at Week 26 or Week 52. The TMS scale includes measurement of dystonia.\nIt is a research tool which has been developed to provide a uniform assessment of the clinical features and course of HD. The TMS component of UHDRS comprises 31 assessments from the 15 items of the UHDRS, with each assessment rated on a 5-point scale from 0 (normal) to 4 (maximally abnormal).\nThe change from baseline in UHDRS-TMS was analyzed using a Repeated Measures model (SAS® MIXED procedure with REPEATED sub-command). The model includes the following fixed effects: categorical week in study by treatment interaction, center, neuroleptic use or no use, and baseline UHDRS-TMS score. The unstructured covariance matrix for repeated observations within patients was used."}, "[2]": {"test_system": "patients with Huntington's disease", "excerpt": "In the UHDRS, maximal dystonia was scored from 0 (absent) to 4 (marked/prolonged) on each of the following items: trunk, right upper extremity, left upper extremity, right lower extremity, and left lower extremity. Maximal dystonia is the sum of all scores.", "remark": "listed apart in the source"}, "[3]": {"details": "45 mg bid, Week 26, Stage 1 BL TFC 11-13"}, "[4]": {"details": "45 mg bid, Week 52, Stage 1 BL TFC 11-13"}, "[5]": {"details": "67.5 mg bid, Week 26, Stage 1 BL TFC 11-13"}, "[6]": {"details": "67.5 mg bid, Week 52, Stage 1 BL TFC 11-13"}, "[7]": {"details": "90 mg bid, Week 26, Stage 1 BL TFC 11-13"}, "[8]": {"details": "90 mg bid, Week 52, Stage 1 BL TFC 11-13"}, "[9]": {"details": "112.5 mg bid, Week 26, Stage 1 BL TFC 11-13"}},
  "note": "Read-outs that look alike come from different tables or passages of the source.",
  "data": [
    {"smiles": "CCCN1CCC(c2cccc(S(C)(=O)=O)c2)CC1", "note": "[pridopidine, 4-[3-(methylsulfonyl)phenyl]-1-propyl-piperidine]", "values": [
      {"measurement": "UHDRS-TMS change from baseline over time", "setting": "[1]; 45 mg bid, HD1 patients, after 52 weeks", "value": "improvement in TMS score"},
      {"measurement": "Δ to placebo, change from baseline in UHDRS TMS", "setting": "[1]; 45 mg bid, Week 26, ALL", "value": 1.42},
      {"measurement": "Δ to placebo, change from baseline in UHDRS TMS", "setting": "[1]; [3]", "value": "−4.47"},
      {"measurement": "Δ to placebo, change from baseline in UHDRS TMS", "setting": "[1]; 45 mg bid, Week 52, ALL", "value": 0.59},
      {"measurement": "Wk 52 Δ to placebo, change from baseline in UHDRS TMS", "setting": "[1]; [4]", "value": "−5.32"},
      {"measurement": "TMS change from baseline vs historical placebo", "setting": "[1]; 45 mg bid, historical placebo in HART and MermaiHD", "value": "significant"},
      {"measurement": "Δ to placebo, change from baseline in UHDRS TMS", "setting": "[1]; 67.5 mg bid, Week 26, ALL", "value": 1.71},
      {"measurement": "Δ to placebo, change from baseline in UHDRS TMS", "setting": "[1]; [5]", "value": "−3"},
      {"measurement": "Δ to placebo, change from baseline in UHDRS TMS", "setting": "[1]; 67.5 mg bid, Week 52, ALL", "value": 2.55},
      {"measurement": "Wk 52 Δ to placebo, change from baseline in UHDRS TMS", "setting": "[1]; [6]", "value": "−0.84"},
      {"measurement": "Δ to placebo, change from baseline in UHDRS TMS", "setting": "[1]; 90 mg bid, Week 26, ALL", "value": 0.67},
      {"measurement": "UHDRS TMS score at week 26 compared to baseline", "setting": "[1]; 90 mg bid, Week 26, BL TFC 11-13, read from FIG. 8b", "value": "about −8"},
      {"measurement": "Δ to placebo, change from baseline in UHDRS TMS", "setting": "[1]; [7]", "value": "−6.15"},
      {"measurement": "Δ to placebo, change from baseline in UHDRS TMS", "setting": "[1]; 90 mg bid, Week 52, ALL", "value": 1.78},
      {"measurement": "Wk 52 Δ to placebo, change from baseline in UHDRS TMS", "setting": "[1]; [8]", "value": "−7.1"},
      {"measurement": "Total Motor Score (TMS) change from baseline, treatment effect", "setting": "[1]; 90 mg bid, compared with other doses", "value": "largest treatment effect"},
      {"measurement": "TMS change from baseline vs historical placebo", "setting": "[1]; 90 mg bid, historical placebo in HART and MermaiHD", "value": "significant"},
      {"measurement": "Total Motor Score (TMS) change from baseline, difference vs historical placebo", "setting": "[1]; 90 mg bid, week 26, historical placebo in HART and MermaiHD", "value": "~6.5", "unit": "TMS point"},
      {"measurement": "Δ to placebo, change from baseline in UHDRS TMS", "setting": "[1]; 112.5 mg bid, Week 26, ALL", "value": 2.1},
      {"measurement": "Δ to placebo, change from baseline in UHDRS TMS", "setting": "[1]; [9]", "value": "−4.79"},
      {"measurement": "Δ to placebo, change from baseline in UHDRS TMS", "setting": "[1]; 112.5 mg bid, Week 52, ALL", "value": 2.71},
      {"measurement": "Wk 52 Δ to placebo, change from baseline in UHDRS TMS", "setting": "[1]; 112.5 mg bid, Week 52, Stage 1 BL TFC 11-13", "value": "−0.92"},
      {"measurement": "Δ to placebo, change from baseline in UHDRS TMS Dystonia", "setting": "[2]; 45 mg bid, Week 26, ALL", "value": "−0.06"},
      {"measurement": "Δ to placebo, change from baseline in UHDRS TMS Dystonia", "setting": "[2]; [3]", "value": "−0.99"},
      {"measurement": "Δ to placebo, change from baseline in UHDRS TMS Dystonia", "setting": "[2]; [4]", "value": "−1.65"},
      {"measurement": "Δ to placebo, change from baseline in UHDRS TMS Dystonia", "setting": "[2]; 45 mg bid, Week 52, all pridopidine treated patients", "value": "−0.39"},
      {"measurement": "Δ to placebo, change from baseline in UHDRS TMS Dystonia", "setting": "[2]; 45 mg bid, week 26, BL TFC ≥9 and CAG Repeats <44 and BL TMS 1st 3 Qs", "value": "−1.53"},
      {"measurement": "Δ to placebo, change from baseline in UHDRS TMS Dystonia", "setting": "[2]; 45 mg bid, week 26, BL TFC≥9 AND CAG Repeats <44", "value": "−1.54"},
      {"measurement": "Δ to placebo, change from baseline in UHDRS TMS Dystonia", "setting": "[2]; 45 mg bid, week 26, CAG Repeats <44 AND BL TMS 1st 3 Qs", "value": "−1.04"},
      {"measurement": "Δ to placebo, change from baseline in UHDRS TMS Dystonia", "setting": "[2]; 67.5 mg bid, Week 26, ALL", "value": "−0.34"},
      {"measurement": "Δ to placebo, change from baseline in UHDRS TMS Dystonia", "setting": "[2]; [5]", "value": "−0.89"},
      {"measurement": "Δ to placebo, change from baseline in UHDRS TMS Dystonia", "setting": "[2]; [6]", "value": "−0.1"},
      {"measurement": "Δ to placebo, change from baseline in UHDRS TMS Dystonia", "setting": "[2]; 67.5 mg bid, Week 52, all pridopidine treated patients", "value": "−0.35"},
      {"measurement": "Δ to placebo, change from baseline in UHDRS TMS Dystonia", "setting": "[2]; 67.5 mg bid, week 26, BL TFC ≥9 and CAG Repeats <44 and BL TMS 1st 3 Qs", "value": "−1.6"},
      {"measurement": "Δ to placebo, change from baseline in UHDRS TMS Dystonia", "setting": "[2]; 67.5 mg bid, week 26, BL TFC≥9 AND CAG Repeats <44", "value": "−1.58"},
      {"measurement": "Δ to placebo, change from baseline in UHDRS TMS Dystonia", "setting": "[2]; 67.5 mg bid, week 26, CAG Repeats <44 AND BL TMS 1st 3 Qs", "value": "−1.15"},
      {"measurement": "Δ to placebo, change from baseline in UHDRS TMS Dystonia", "setting": "[2]; 90 mg bid, Week 26, ALL", "value": "−0.33"},
      {"measurement": "Δ to placebo, change from baseline in UHDRS TMS Dystonia", "setting": "[2]; [7]", "value": "−1.56"},
      {"measurement": "Δ to placebo, change from baseline in UHDRS TMS Dystonia", "setting": "[2]; [8]", "value": "−1.46"},
      {"measurement": "Δ to placebo, change from baseline in UHDRS TMS Dystonia", "setting": "[2]; 90 mg bid, Week 52, all pridopidine treated patients", "value": "−0.27"},
      {"measurement": "Δ to placebo, change from baseline in UHDRS TMS Dystonia", "setting": "[2]; 90 mg bid, week 26, BL TFC ≥9 and CAG Repeats <44 and BL TMS 1st 3 Qs", "value": "−1.64"},
      {"measurement": "Δ to placebo, change from baseline in UHDRS TMS Dystonia", "setting": "[2]; 90 mg bid, week 26, BL TFC≥9 AND CAG Repeats <44", "value": "−1.72"},
      {"measurement": "Δ to placebo, change from baseline in UHDRS TMS Dystonia", "setting": "[2]; 90 mg bid, week 26, CAG Repeats <44 AND BL TMS 1st 3 Qs", "value": "−1"},
      {"measurement": "Δ to placebo, change from baseline in UHDRS TMS Dystonia", "setting": "[2]; 112.5 mg bid, Week 26, ALL", "value": "−0.29"},
      {"measurement": "Δ to placebo, change from baseline in UHDRS TMS Dystonia", "setting": "[2]; [9]", "value": "−0.53"}
    ]}
  ]
}
